Source: patent US20240301409A1, “Chemically Modified Small Activating RNA” (RACTIGEN THERAPEUTICS, priority 2021, published 2024)

Tests used:
[1] = tested on: Rag1-40 target sequence in the 3′ UTR of firefly luciferase, COS-1 cells
Description: A 26 bp fragment comprising the target site of Rag1-40 was cloned in the antisense orientation into the 3′ UTR region of the firefly luciferase gene in a pmirGLO dual luciferase vector. Vector plasmids were co-transfected with the indicated saRNAs into COS-1 cells. Cells were lysed 48 hours after transfection, and the resulting lysates were assessed for luciferase activity. Data represent mean±SD of at least two independent experiments. Dashed line represents comparisons to blank control (top dashed line) and Rag1-40 (bottom dashed line). Values close to the top dashed line indicate no off-target effect.
A 26 bp fragment comprising the Rag1-40 target sequence was cloned in the antisense orientation into a multiple cloning site (MCS) of the 3′ untranslated region of firefly luciferase of the pmirGLO dual luciferase vector (Promega, Fitchburg, WI), to obtain pOff-Target plasmid. Following E. coli transformation and overnight incubation, plasmids for each construct were prepared by standard method. Each plasmid was transfected into COS-1 monkey kidney epithelial cells using Lipofectamine 3000 (Invitrogen, Carlsbad, CA). Subsequently, saRNA was transfected using RNAiMAX. After 24 hours of incubation, COS-1 cells were lysed with 1× lysis buffer, and luciferase activity was measured using dual luciferase reporter gene assay system (Promega, WI, USA) following manufacturer's instructions.
To assess the off-target effects of unmodified and modified saRNAs, a sequence complementary to the sense oligonucleotide strand of Rag1-40 was cloned into the 3′UTR region of the luciferase gene in a pmirGLO dual luciferase vector. The vector plasmid was co-transfected with the saRNA into COS-1 cells. Cells were lysed 48 hours after transfection and the resulting lysates were assessed for luciferase activity.

[2] = tested on: J82 cells; assay: Apoptosis detection (FITC Annexin V, flow cytometry) in J82 cells with or without PBMC co-culture; type: cell-based, human
Description: J82 cells were transfected with RAG1-40-31 and RAG1-40-53 at final concentrations of 0.1, 1, 10 and 25 nM, and 24 hours after transfection, fresh medium was replaced and a certain ratio of PBMC cells was added (J82 cells:PBMC cells=1:4). The cells were co-cultured for 48 hours. After co-culture, cells were collected and cell apoptosis was detected by flow cytometry. FIGS. 13A-13B show the relative proliferation proportion of J82 cells after the combined treatment with chemically modified saRNA RAG1-40-31 and Mitomycin C. […] Control and DMSO are the blank transfection control and the solvent for dilution control, respectively.
J82 cells were transfected with RAG1-40-31 at 0.1, 1, 10 and 25 nM. After 24 hours of transfection, the cells were refreshed with PBMC cell-containing fresh medium. The PBMC and J82 cells were co-cultured for 48 hours, and then the supernatant was discarded and the cells were collected. 500 μL PBS was added to each well for washing and then discarded, before the addition of 100 μL trypsin/well. 900 μL medium was added to stop digestion and the content was transferred to a 1.5 mL centrifuge tube. All the cells were collected through centrifugation (400 rcf, 5 min) and counted (1˜2×10^5 cells/100 μL Binding Buffer). 100 μL of 1× Binding Buffer (B&D Systems, 51-66121E), 5 μL FITC Annexin V (B&D Systems, 51-65874X) and 5 μL PI (B&D Systems, 51-66211E) were added before incubation in dark at room temperature for 15 minutes. After the incubation, 100 μL of 1× binding buffer was added before blending and transferring to a 96-well plate for analysis with flow cytometer (Beckman Coulter). The sample should be analyzed within 1 hour.
In order to verify this hypothesis, in this example, RAG1-40-31 duplex was selected to transfect J82 cells, and after 24 hours of transfection, the cells were refreshed with fresh medium and PBMC cells at a certain ratio (J82 cells:PBMC cells=1:4) were added, or cells free of PBMC were replaced as control. After 48 hours of co-culture, FITC Annexin V kit was used to detect the apoptosis of tumor cells on a flow cytometer. […] In PBMC-free cell culture, for RAG1-40-31 treatments at 0.1, 1, 10 and 25 nM, the percentages of cells in early apoptosis were 2.3%, 2.6%, 9.4% and 15.5%, respectively, and the percentages of cells in late apoptosis were 5.3%, 5.2%, 6.7% and 9.1%, respectively. In co-culture with PBMC cells, for RAG1-40-31 treatments at 0.1, 1, 10 and 25 nM, the percentages of cells in early apoptosis were 2.0%, 4.5%, 31.5% and 49.3%, respectively, and the percentages of cells in late apoptosis were 5.6%, 7.3%, 6.3% and 5.8%, respectively.

[3] = co-culture with PBMC cells (1:4) 48 hours, 0.1 nM
[4] = co-culture with PBMC cells (1:4) 48 hours, 1 nM
[5] = co-culture with PBMC cells (1:4) 48 hours, 10 nM
[6] = co-culture with PBMC cells (1:4) 48 hours, 25 nM

Substance: RAG1-40-31: saRNA duplex: sense fCfCAACUCAUUCUCCAAG*U*C (SEQ ID NO 16); antisense U*A*fCfUfUGGAGAAfUGAGfUfUGG*fC*A (SEQ ID NO 12) (sense CCAACUCAUUCUCCAAGUC; antisense UACUUGGAGAAUGAGUUGGCA; 2'-F and phosphorothioate modifications; modified_base (1)..(2) (1,2)=2′-fluoro; modified_base (17)..(19) (17,18,19)=phosphorothioate (PS) backbone modification; modified_base (2)..(21) (2,3,19,20,21)=phosphorothioate (PS) backbone modification; modified_base (3)..(20) (3,4,5,12,16,17,20)=2′-fluoro)
- off-target effect compared to unmodified Rag1-40, in words [1]: mitigated or similar off-target effects
- percentage of cells in early apoptosis ([2]; PBMC-free cell culture, 0.1 nM): 2.3%
- percentage of cells in late apoptosis ([2]; PBMC-free cell culture, 0.1 nM): 5.3%
- percentage of cells in early apoptosis ([2]; PBMC-free cell culture, 1 nM): 2.6%
- percentage of cells in late apoptosis ([2]; PBMC-free cell culture, 1 nM): 5.2%
- percentage of cells in early apoptosis ([2]; PBMC-free cell culture, 10 nM): 9.4%
- percentage of cells in late apoptosis ([2]; PBMC-free cell culture, 10 nM): 6.7%
- percentage of cells in early apoptosis ([2]; PBMC-free cell culture, 25 nM): 15.5%
- percentage of cells in late apoptosis ([2]; PBMC-free cell culture, 25 nM): 9.1%
- percentage of cells in early apoptosis [2, 3]: 2.0%
- percentage of cells in late apoptosis [2, 3]: 5.6%
- percentage of cells in early apoptosis [2, 4]: 4.5%
- percentage of cells in late apoptosis [2, 4]: 7.3%
- percentage of cells in early apoptosis [2, 5]: 31.5%
- percentage of cells in late apoptosis [2, 5]: 6.3%
- percentage of cells in early apoptosis [2, 6]: 49.3%
- percentage of cells in late apoptosis [2, 6]: 5.8%
